Results taken from patent publication US4959362A, “Pharmaceutical compositions containing certain ascorbic acid derivatives useful in the prophylaxis and treatment of disorders of the circulatory system” (Takeda Chemical Industries, Inc., priority 1983, dated 1990).

Assays:
[1] = tested on: lipid peroxide formation in rat brain tissue homogenate; experiment: Inhibition of lipid peroxide formation in rat brain tissue homogenate (TBA method); type: biochemical, rat (male SD); conditions: 10^-5 M; for Inhibitory Effect (%) on lipid peroxide formation: n = 3, mean ± standard error, 37° C., 1 hour
Method: Activity to inhibit lipid peroxide formation in rat brain tissue homogenate:
Male SD rats (12-weeks old) were subjected to exsanguination under anesthesia with pentobarbital, then the brain was excised. The brain tissue was homogenized in a phosphate buffer solution (pH 7.4) to prepare a 5% homogenate. After incubation of the homogenate at 37° C. for 1 hour, the amount of lipid peroxides formed therein was determined by thiobarbituric acid (TBA) method in accordance with the report of Ohkawa et al. on Analytical Biochemistry 95 351, 1979.
The test drug was added to the 5% homogenate before incubation so as to make the final concentration be 10^-5 M. The activity to inhibit the formation of lipid peroxides was compared with that of the reference group to which was added the solvent (DMSO), and shown by % inhibition.

[2] = tested on: ventricular arrhythmias after coronary artery occlusion-reperfusion in rat hearts; experiment: Inhibition of ventricular arrhythmias during coronary artery occlusion-reperfusion in rat hearts; type: in vivo, rat (male SD); conditions: for Extrasystole / Mortality (animals) / Mortality (percentage) / Ventricular fibrillation Incidence (animals) / Ventricular fibrillation Incidence (percentage) / Ventricular tachycardia Incidence (animals) / Ventricular tachycardia Incidence (percentage) / Ventricular fibrillation Duration / Ventricular tachycardia Duration / occurrence of ventricular arrhythmias: oral; for Ventricular fibrillation Duration / Ventricular tachycardia Duration: average ±SEM; for occurrence of ventricular arrhythmias: 20 and 50 mg/kg of compound (1-12), 50 mg/kg of vitamin C or E
Method: Action to inhibit ventricular arrhythmias occurred during coronary artery occlusion-reperfusion in rat hearts
Male SD rats (9~13 - weeks old, 250~370 g) were used. The animals were subjected to thoractonomy under artificial respiration while anesthesia was maintained by administering pentobarbital. […] By recording standard limb lead II electrocardiograms, occurrence of ventricular arrhythmias was examined.
The animals were administered, under non-anesthesia, with test drugs as a gum arabic suspension at the dosage of 30 mg/kg at the time of about 90 minutes and of 20 mg/kg at the time of about 45 minutes (total: 50 mg/kg), or at the dosage of 10 mg/kg each (total: 20 mg/kg) at the time of about 90 minutes and about 45 minutes prior to closure of the coronary artery. The results are shown in Table 4 in terms of the total amount of the dosage.
Incidences of ventricular fibrillation and ventricular tachycardia are shown by the percentage of the number of animals presenting the symptoms relative to the number of animals subjected to the test, and the duration of the symptoms was shown in average ±SEM by seconds. Extrasystole is shown by the number of systole/min, and the mortality is shown by the percentage of the number of animals killed relative to the number of animals subjected to the test.

[3] = tested on: ischemic convulsive seizure (bilateral common carotid artery ligation); experiment: Inhibition of ischemic seizure due to ligation of bilateral common carotid arteries in SHR rats; type: in vivo, rat (male SHR)
Method: Inhibition of ischemic seizure due to ligation of bilateral common carotid arteries in SHR rats
Male SHR rats (22-weeks old, about 360 g) were used. Under light anesthesia with ether, the animals were subjected to midline incision at the neck and the bilateral common carotid arteries were singled, then ligated to cause cerebral ischemia. […] The animals were orally administered with test drugs as a gum arabic suspension 60 minutes before the ligation of the bilateral common carotid arteries.

[4] = Oxidation inhibitory activity: reduction of a stable free radical (DPPH); type: biochemical; conditions: for DPPH reducing activity compared with the test drug: FIG. 1
Method: Oxidation inhibitory activity determined with the use of a stable radical: In accordance with the method of M. S. Brois [Nature, 181, 1199, 1958], the activity to reduce a stable free radical, α,α-diphenyl-β-picryl hydrazyl (DPPH), was determined, which was used as an index of the oxidation inhibitory activity. […] Then, 20 minutes later, the absorbance at a wavelength of 517 nm was measured with the use of a spectrophotometer.

[5] = tested on: renal disorders due to Fe^3+ -nitrilotriacetate (NTA); experiment: Effects on renal disorders in rats due to Fe^3+ nitrilotriacetate (NTA); type: in vivo, rat (male SLC-Wistar); conditions: 30 mg/kg orally; for Body Weight / Kidney Weight / Occult Blood Test (positive animals/animals) / Protein in urine / Volume of urine: n = 6, last day of the experiment
Method: Effects to alleviate renal disorders in rats due to Fe^3+ nitrilotriacetate:
Male SLC-Wistar rats (4-weeks old, 64~85 g) were used. The animals were housed individually in metabolism cages and allowed free access to feed and water. Body weight, volume of urine and protein in urine (BIO-RAD method) were determined every day, and occult blood reaction was also examined (Labstick method). On the last day of the experiment, the kidney was excised and weighed.
The animals were orally administered once daily with test drugs or vehicles thereof (suspension in gum arabic), and, 40~60 minutes later, were injected intraperitoneally with nitrilotriacetate (NTA) or Fe^3+ -NTA. Fe^3+ -NTA was used in a form of mixture (1:4, molar ratio), and the dosages were 5 mg/kg in terms of Fe^3+ for 3 days and successively 10 mg/kg for 5 days.
Test drugs were compound (1-12), vitamin C and vitamin E, and the dosages were all 30 mg/kg.

mice = experiment: Acute toxicity in mice; type: in vivo; conditions: 300 and 1000 mg/kg orally
Method: Male Crj-ICR mice (4-weeks old, 21~26 g) were used. The animals, divided into groups, each consisting of six mice, were administered orally with compound (1-12) at the dosage of 300 or 1000 mg/kg. Then, each group was housed in a cage, and observed for 24 hours. The test drugs were suspended in gum arabic, and administered at the volume of 0.1 ml/10 g.

[6] = 100 mg/kg p.o., within 180 minutes

CCCCCCCCOC1=C(O)[C@@H]([C@@H](O)CO)OC1=O [Compound (1-2)]
Inhibitory Effect (%) on lipid peroxide formation [1]: -6.6 ± 3.0%

CCCCCCCCCCOC1=C(O)[C@@H]([C@@H](O)CO)OC1=O [Compound (1-4)]
Inhibitory Effect (%) on lipid peroxide formation [1]: 40.0 ± 1.1%

CCCCCCCCCCCCOC1=C(O)[C@@H]([C@@H](O)CO)OC1=O [Compound (1-6), 2-O-Dodecyl-L-ascorbic acid]
Inhibitory Effect (%) on lipid peroxide formation [1]: 55.7 ± 26.5%

CCCCCCCCCCCCCCOC1=C(O)[C@@H]([C@@H](O)CO)OC1=O [Compound (1-8)]
Inhibitory Effect (%) on lipid peroxide formation [1]: 93.1 ± 5.3%

CCCCCCCCCCCCCCCOC1=C(O)[C@@H]([C@@H](O)CO)OC1=O [Compound (1-9), 2-O-pentadecyl-L-ascorbic acid]
Inhibitory Effect (%) on lipid peroxide formation [1]: 100.0 ± 0%

CCCCCCCCCCCCCCCCOC1=C(O)[C@@H]([C@@H](O)CO)OC1=O [Compound (1-10), 2-O-hexadecyl-L-ascorbic acid]
Inhibitory Effect (%) on lipid peroxide formation [1]: 78.5 ± 11.7%

CCCCCCCCCCCCCCCCCCOC1=C(O)[C@@H]([C@@H](O)CO)OC1=O [Compound (1-12), 2-O-octadecylascorbic acid]
Extrasystole ([2]; 20 mg/kg total): 3.3 ± 0.8 systole/min | Mortality (animals) ([2]; 20 mg/kg total): 1/17 | Mortality (percentage) ([2]; 20 mg/kg total): 6 percentage | Ventricular fibrillation Incidence (animals) ([2]; 20 mg/kg total): 9/17 | Ventricular fibrillation Incidence (percentage) ([2]; 20 mg/kg total): 53 percentage | Ventricular tachycardia Incidence (animals) ([2]; 20 mg/kg total): 11/17 | Ventricular tachycardia Incidence (percentage) ([2]; 20 mg/kg total): 65 percentage | Ventricular fibrillation Duration ([2]; 20 mg/kg total): 31.0 ± 28.2 s | Ventricular tachycardia Duration ([2]; 20 mg/kg total): 10.2 ± 3.2 s | Extrasystole ([2]; 50 mg/kg total): 1.1 ± 0.3 systole/min | Mortality (animals) ([2]; 50 mg/kg total): 0/9 | Mortality (percentage) ([2]; 50 mg/kg total): 0 percentage | Ventricular fibrillation Incidence (animals) ([2]; 50 mg/kg total): 2/9 | Ventricular fibrillation Incidence (percentage) ([2]; 50 mg/kg total): 22 percentage | Ventricular tachycardia Incidence (animals) ([2]; 50 mg/kg total): 2/9 | Ventricular tachycardia Incidence (percentage) ([2]; 50 mg/kg total): 22 percentage | Ventricular fibrillation Duration ([2]; 50 mg/kg total): 1.2 ± 0.8 s | Ventricular tachycardia Duration ([2]; 50 mg/kg total): 3.2 ± 2.6 s | frequency of occasional PVCs ([2]; 20 and 50 mg/kg): less significantly | mortality due to VF ([2]; 20 and 50 mg/kg): low | period of time during which the symptom lasted ([2]; 20 and 50 mg/kg): shortened | occurrence of ventricular arrhythmias [2]: suppressed significantly and depending on the dosages | delay of appearance of the convulsion ([3]; 100 mg/kg orally, versus vehicle): about 40 minutes | Ischemic convulsive seizure Time ([3]; 100 mg/kg p.o., n = 5): 199 min | Ischemic convulsive seizure Incidence (%) [3, 6]: 20% | Ischemic convulsive seizure Incidence (animals) [3, 6]: 1/5 | Activity on lipid peroxide formation [1]: higher activity | Inhibitory Effect (%) on lipid peroxide formation [1]: 88.6 ± 6.8% | concentration at which DPPH is reduced in a manner dependent upon the amount used ([4]; 20 minutes, 0.1 mM DPPH ethanol solution, 517 nm): not less than 10^-5 M | Effect on renal disorders [5]: renal disorders were alleviated | occult blood detection [5]: only in half of the test animals, occult blood was detected | urine volume and urinary protein compared with vehicle [5]: significatly less | weight of kidney compared with vehicle [5]: significantly less | Body Weight [5]: 95.5 ± 3.0 g | Kidney Weight [5]: 56.5 ± 2.0 mg | Occult Blood Test (positive animals/animals) [5]: 3/6 | Protein in urine [5]: 8.1 ± 2.1 mg/day | Volume of urine [5]: 7.4 ± 1.3 mL/day | recovery from sedation and ptosis (mice): ≤ 3 h | state observed (mice): the state of sedation and ptosis were observed | lethality (mice; 24-hour-observation): no test animals of either group were killed

CCCCCCCCCCCCCCCCCCCCOC1=C(O)[C@@H]([C@@H](O)CO)OC1=O [Compound (1-13)]
Inhibitory Effect (%) on lipid peroxide formation [1]: 95.4 ± 4.6%

CCCCCCCCCCCCCCCCCCCCCCOC1=C(O)[C@@H]([C@@H](O)CO)OC1=O [Compound (1-14)]
Inhibitory Effect (%) on lipid peroxide formation [1]: 38.1 ± 16.6%

O=C1O[C@H]([C@@H](O)CO)C(O)=C1O [Vitamin C, ascorbic acid]
Extrasystole ([2]; 50 mg/kg total): 5.1 ± 1.0 systole/min | Mortality (animals) ([2]; 50 mg/kg total): 0/6 | Mortality (percentage) ([2]; 50 mg/kg total): 0 percentage | Ventricular fibrillation Incidence (animals) ([2]; 50 mg/kg total): 6/6 | Ventricular fibrillation Incidence (percentage) ([2]; 50 mg/kg total): 100 percentage | Ventricular tachycardia Incidence (animals) ([2]; 50 mg/kg total): 6/6 | Ventricular tachycardia Incidence (percentage) ([2]; 50 mg/kg total): 100 percentage | Ventricular fibrillation Duration ([2]; 50 mg/kg total): 9.7 ± 2.5 s | Ventricular tachycardia Duration ([2]; 50 mg/kg total): 19.0 ± 3.0 s | occurrence of ventricular arrhythmias [2]: no significant effects | Activity on lipid peroxide formation [1]: promoted the formation of lipid peroxides remarkably | Inhibitory Effect (%) on lipid peroxide formation [1]: -71.6 ± 36.8% | DPPH reducing activity compared with the test drug [4]: activity equal to that of the test drug | Effect on renal disorders [5]: did not show significant effect for alleviating renal disorders | Body Weight [5]: 89.2 ± 4.1 g | Kidney Weight [5]: 64.5 ± 1.7 mg | Occult Blood Test (positive animals/animals) [5]: 5/6 | Protein in urine [5]: 10.7 ± 2.4 mg/day | Volume of urine [5]: 10.3 ± 1.7 mL/day

CCCCCCCCCCCCCCCCCCOC1=C(O)C(=O)O[C@@H]1[C@@H](O)CO [reference compound]
Inhibitory Effect (%) on lipid peroxide formation [1]: 45.4 ± 8.7%

Vitamin E [reference compound]
Extrasystole ([2]; 50 mg/kg total): 7.0 ± 4.1 systole/min | Mortality (animals) ([2]; 50 mg/kg total): 1/10 | Mortality (percentage) ([2]; 50 mg/kg total): 10 percentage | Ventricular fibrillation Incidence (animals) ([2]; 50 mg/kg total): 6/10 | Ventricular fibrillation Incidence (percentage) ([2]; 50 mg/kg total): 60 percentage | Ventricular tachycardia Incidence (animals) ([2]; 50 mg/kg total): 7/10 | Ventricular tachycardia Incidence (percentage) ([2]; 50 mg/kg total): 70 percentage | Ventricular fibrillation Duration ([2]; 50 mg/kg total): 43.4 ± 36.0 s | Ventricular tachycardia Duration ([2]; 50 mg/kg total): 22.3 ± 9.7 s | occurrence of ventricular arrhythmias [2]: no significant effects | Inhibitory Effect (%) on lipid peroxide formation [1]: 44.9 ± 11.7% | DPPH reducing activity compared with the test drug [4]: activity equal to that of the test drug | Effect on renal disorders [5]: substantially the same effects | occult blood detection [5]: in more than half of the test animals, occult blood test was positive | Body Weight [5]: 99.3 ± 2.3 g | Kidney Weight [5]: 54.3 ± 2.7 mg | Occult Blood Test (positive animals/animals) [5]: 4/6 | Protein in urine [5]: 6.3 ± 1.4 mg/day | Volume of urine [5]: 9.0 ± 1.0 mL/day
